# Test results taken from US20160113900A1, “INHIBITORS OF MITOCHONDRIAL STAT3 AND USES THEREOF IN MODULATION OF MAST CELL EXOCYTOSIS” (Yissum Research Development Company of the Hebrew …, priority 2014, published 2016).
# Tests used:
# [1] = system: succinate cytochrome c reductase (complex 2+3); test: ETC complex activity analysis in treated RBL cells: complex 2+3; type: cell-based, rat; conditions: 60 μM Stattic, 30 min, ratio to citrate synthase
# Protocol: (§1) The enzymatic activities of respiratory chain complexes were measured at 37° C. by standard spectrophotometric methods as previously described5, 6. Briefly, complex II was measured as succinate dehydrogenase (SDH) based on the succinate-mediated phenazine methosulfate reduction of dichloroindophenol at 600 nm Complex 2+3 were measured as succinate cytochrome c reductase and after the reduction of oxidized cytochrome c at 550 nm. Complex 4 (cytochrome c oxidase) was measured by following the oxidation of reduced cytochrome c at 550 nm.
# (§2) Citrate synthase (CS), an ubiquitous mitochondrial matrix enzyme, serving as a control, was measured in the presence of acetylCoA and oxaloacetate by monitoring the liberation of CoASH coupled to 5′,5′-dithiobis(2-nitrobenzoic) acid at 412 nm. Activities are presented as a ratio to CS. Protein concentration was determined by the Lowry method and calculated according to a bovine serum albumin (BSA) standard curve.
# CBMC = test: β-Hexosaminidase release assay (degranulation) in human cord blood-derived mast cells; type: cell-based; conditions: 60 μM Stattic 5 min before α-human-IgE, control cells 20.9±4.9
# BMMC [2] = test: Measurements of secreted mediators (ELISA) in activated BMMC; type: cell-based, mouse; conditions: immunologically activated BMMC, 60 μM Stattic 20 min
# Protocol: 1×106 BMMC were immunologically activated as described above. After IgE incubation, the cells were washed three times in PBS and incubated with DNP-albumin (Sigma-Aldrich) for 30 mM in complete growth medium. Supernatant was collected and Granzyme B and TNFα content were measured using ELISA Kits (eBioscience).
# BMMC [3] = test: ATP determination (ATPLite luminescence) in BMMC; type: cell-based, mouse; conditions: 60 μM Stattic, 20 min
# Protocol: (§3) RBL-2H3 cells were maintained in RPMI 1640 medium as previously described1. Bone marrow was isolated from 5-6 week-old mice, and BMMC were cultured in RPMI medium supplemented with 20 ng/ml interleukin-3 (IL-3) and 20 ng/ml SCF as previously described2, 3. Cells were generally grown for a minimum of 4 weeks and used when >90% of the population expressed FcεRI. BMMC and RBL cells were sensitized first with anti-DNP IgE monoclonal antibody (SPE-7; Sigma-Aldrich Corp.) and then challenged with DNP-BSA (Sigma-Aldrich Corp.). IgE antibody was centrifuged (18,000 g, 5 min) before use to remove aggregates. […] For glycolysis elimination cells were maintained in glucose-free RPMI supplemented with 10% dialyzed fetal calf serum and 5 mM galactose.
# ATP levels were measured using the ATPLite luminescence-based assay according to the manufacturer's instructions (Perkin Elmer, Waltham, Mass., USA).
# [4] = system: cytochrome c oxidase (COX, complex 4); test: ETC complex activity analysis in treated RBL cells: complex 4; type: cell-based, rat; conditions: 60 μM Stattic, 30 min
# Protocol: as §1, §2
# [5] = system: succinate dehydrogenase (SDH, complex 2); test: ETC complex activity analysis in treated RBL cells: complex 2; type: cell-based, rat; conditions: 60 μM Stattic, 30 min
# Protocol: as §1, §2
# RBL cells [6] = test: β-Hexosaminidase release assay (degranulation) in RBL cells; type: cell-based, rat; conditions: RBL cells
# Protocol: as §3
# 1×104 RBL or 3×104 BMMC were immunologically activated as described above. After IgE incubation, the cells were washed three times with 5 mL of degranulation buffer (NaCl 130 mM, KCl 5 mM, Glucose 5.6 mM, MgCl2 1 mM, CaCl2 1.2 mM, Hepes pH 7.4 10 mM, BSA 0.1%) and resuspended in 200 μL of the same buffer with DNP-albumin for 30 min. The release of β-hexosaminidase was determined in triplicates in a 96-well plate. Aliquots (20 μL) of supernatants and cell lysates were incubated for 30 minutes with 100 μL of substrate solution (1.3 mg/mL p-nitrophenyl-b-D-2-acetamido-2-deoxyglucopyranozide in 0.1 M citrate [pH 4.51]). The reaction was stopped by the addition of 200 μL of 0.2 M glycine (pH 10.7). The plate OD was read in an enzyme-linked immunosorbent assay (ELISA) reader at a wavelength of 405 nm Percent release values for each experimental condition were calculated3.
# [7] = system: STAT3 serine 727 phosphorylation; test: Western blot of STAT3 serine 727 phosphorylation in activated RBL cells; type: cell-based, rat; conditions: RBL cells, 60 μM Stattic 20 min, immunologically activated 5 min
# Protocol: RBL cells were washed once in cold PBS prior to homogenization. 9×10^6 cells were homogenized in buffer A (320 mm sucrose, 5 mm Tris, 2 mm EGTA, pH 7.4) with 10 strokes of a Teflon Dounce homogenizer. The procedure was performed at 4° C. The homogenate was centrifuged for 3 min at 2000 g and the supernatant kept. This was repeated twice, and the supernatants combined then centrifuged for 3 min at 2000 g. to remove the nuclei and cell debris. The supernatant was transferred to a clean tube and centrifuged for 10 min at 12,000 g to pellet mitochondria, washed twice resuspended in a small volume of buffer A and stored at −70° C. In order to prepare mitoplasts, the mitochondrial pellet was resuspended in buffer A with the addition of 0.02% (w/v) digitonin. The pellet was resuspended and washed twice in large volumes of digitonin-free buffer A. […] Cells and mitochondria were vortexed and incubated on ice for 15 min. The lysates were then centrifuged at 14,000 g for 15 min and pellets were discarded. The protein concentration of each sample was determined using Bradford Reagent (Sigma-Aldrich). Proteins were resolved by 10-15% SDS-PAGE under reducing conditions and transferred to polyvinylidene difluoride membranes (Millipore Billerica, Ma). […] The membranes were washed three times with TBST for 5 mM before and after each incubation with secondary Ab. The proteins were detected with the appropriate secondary Ab (1 h; room temperature) coupled to HRP-conjugated goat anti-rabbit or anti-mouse Ab and visualized by chemiluminescence according to the manufacturer's instructions (Pierce).
# RBL cells [8] = test: Oxygen consumption (Seahorse XF analyzer) in RBL cells; type: cell-based, rat; conditions: RBL cells, 60 μM Stattic, 20 min
# Protocol: as §3
# Oxygen consumption rate (OCR) was measured using an XF24 extracellular flux analyzer (Seahorse Biosciences, North Billeric, Mass., USA).
# RBL cells [9] = test: TNF-α secretion of activated RBL cells; type: cell-based, rat; conditions: RBL cells, IgE/DNP-BSA, 60 μM Stattic 20 min
structure (smiles),measurement,setting,value
"O=[N+]([O-])c1ccc2c(c1)S(=O)(=O)C=C2 [Stattic, 6-Nitrobenzo[b]thiophene 1,1-dioxide, reference compound]",reduction in complex 2+3 activity,[1],50.8±6.1%
same,degranulation (β-hexosaminidase release),CBMC,3.5±1.9
same,Granzyme B secretion,BMMC [2],greatly reduced
same,reduction in ATP levels,BMMC [3],76.4±9.3%
same,"change in cytochrome c oxidase (COX, complex 4) activity",[4],No significant change
same,"change in succinate dehydrogenase (SDH, complex 2) activity",[5],No significant change
same,degranulation,RBL cells [6]; 5 min incubation with Stattic (data not shown),totally abolished
same,β-hexosaminidase release,"RBL cells [6]; IgE/DNP-BSA, 60 μM Stattic 20 min",completely abolished
same,"effect on IgE-Ag mediated β-hexosaminidase release, dependence on concentration",RBL cells [6]; stated concentrations of Stattic (FIG. 6),concentration dependent
same,phosphorylation levels of STAT3 serine 727 in total cell lysate,[7],significant reduction
same,reduction in oxygen consumption,RBL cells [8],18.6±8.3%
same,TNF-α secretion,RBL cells [9],completely abolished
